Test results from patent US5364623A, “Antibiotic produced by Bacillus subtilis ATCC 55422 capable of inhibiting bacteria” (Bristol-Myers Squibb Company, priority 1993, dated 1994).
Converted amounts (≈) assume the structure as drawn.

What was measured:
[1] = test system: Staphylococcus aureus SC-2400; test: Agar diffusion, S. aureus SC-2400; type: cell-based; conditions: 25 μg per well, overnight at 37° C.
Protocol: (§1) (3) The effect of bacillaene on a wide spectrum of bacteria was determined using the agar diffusion method. The bacteria to be tested were grown in […] broth overnight at 37° C. This culture was used to inoculate […] agar using a standard pour plate method. A 1% inoculum of the overnight culture was used. Wells of 2 mm diameter were punched in the agar and bacillaene (25 μg) was loaded in each well. The plates were incubated overnight at 37° C. and lack of growth around the agar well was scored as inhibition by bacillaene of the growth of the organism.

[2] = test system: Staphylococcus aureus 209P; test: Agar diffusion, S. aureus 209P; type: cell-based; conditions: 25 μg per well, overnight at 37° C.
Protocol: as §1

[3] = test system: Procaryotic in vitro transc.-transl. sys.; test: In vitro protein synthesis, procaryotic transcription-translation coupled system (35S incorporation); type: biochemical
Source text: A prokaryotic in vitro transcription-translation coupled system was used for these experiments (Promega Corporation, 2800, Woods Hollow Road, Madison, Wis.).

[4] = test system: Escherichia coli; test: MIC, liquid broth tube dilution, E. coli strains overall; type: cell-based
Protocol: (§2) (1) Determination of the minimum concentration of bacillaene required for total inhibition of growth (MIC) was performed using liquid H108 medium containing Bacto-Tryptone (10g); Bacto-yeast extract (5 g); NaCl (5 g); and distilled water (1 liter). The assays were performed in 13×100 mm glass tubes in a final volume of 0.5 ml. Two fold dilutions of the compound were utilized. The cultures were incubated at 37° C. in a test-tube rack on a shaker. Presence of turbidity was used as an indicator of growth. The tubes were read after 6-7 hours of incubation.

[5] = test system: Escherichia coli BAS-2006; test: MIC, liquid broth tube dilution assay, E. coli BAS-2006; type: cell-based; conditions: H108 medium, 37° C., 6-7 hours
Protocol: as §2

[6] = test system: Escherichia coli SGB-888; test: MIC, liquid broth tube dilution assay, E. coli SGB-888; type: cell-based; conditions: H108 medium, 37° C., 6-7 hours
Protocol: as §2

[7] = test system: Escherichia coli SGB-10857; test: MIC, liquid broth tube dilution assay, E. coli SGB-10857; type: cell-based; conditions: H108 medium, 37° C., 6-7 hours
Protocol: as §2

[8] = test system: Rabbit reticulocyte in vitro trans. sys.; test: In vitro protein synthesis, eucaryotic (rabbit reticulocyte) translation system; type: biochemical
[9] = test system: Escherichia coli K-10; test: MIC, liquid broth tube dilution assay, E. coli K-10; type: cell-based; conditions: H108 medium, 37° C., 6-7 hours
Protocol: as §2

[10] = test system: Escherichia coli impB; test: MIC, liquid broth tube dilution assay, E. coli impB; type: cell-based; conditions: H108 medium, 37° C., 6-7 hours
Protocol: as §2

[11] = test system: Saccharomyces cervesiae; test: Growth of eukaryotic cells; type: cell-based

C/C(=C/C=C/C=C/C(C)C(=O)O)NC(=O)CC(O)\C(C)=C/C=C\C=C(C)\C=C\C=C/C=C/CNC(=O)C(O)CC(C)C (stereo not shown) [Bacillaene, bacillaene]
Growth Inhibition [1]: ++ (hazy)
Growth Inhibition [2]: ++ (hazy)
inhibition of procaryotic protein synthesis (in words) ([3]; 35S incorporation into trichloroacetic-acid-precipitable polypeptides): potent inhibitor of procaryotic protein synthesis
Inhibition of in vitro protein synthesis, procaryotic in vitro transc.-transl. sys. ([3]; final conc. 0.75 μg/ml): > 88.0%
Inhibition of in vitro protein synthesis, procaryotic in vitro transc.-transl. sys. ([3]; final conc. 1.5 μg/ml): > 95.0%
potency against certain strains of Escherichia coli (in words) [4]: extremely potent
MIC [5]: 0.60 µg/mL (≈ 1.03 µM)
MIC [6]: 0.09 µg/mL (≈ 0.155 µM)
MIC [7]: 5.0 µg/mL (≈ 8.61 µM)
inhibition of eucaryotic in vitro protein translation system (in words) ([8]; at the concentrations tested): failed to inhibit
Inhibition of in vitro protein synthesis, rabbit reticulocyte in vitro trans. sys. ([8]; final conc. 0.75 μg/ml): < 7.0%
Inhibition of in vitro protein synthesis, rabbit reticulocyte in vitro trans. sys. ([8]; final conc. 1.5 μg/ml): < 7.0%
Inhibition of in vitro protein synthesis, rabbit reticulocyte in vitro trans. sys. ([8]; final conc. 6.0 μg/ml): < 7.0%
MIC [9]: 37.0 µg/mL (≈ 63.7 µM)
MIC [10]: 0.50 µg/mL (≈ 0.861 µM)
effect on growth of eukaryotic cells (in words) [11]: not observed to affect the growth
